Data as given in patent US20220193185A1, “COMBINATION OF SYNTHETIC PEPTIDES WITH AFFINITY TO THE TGF-ß RECEPTOR AND WITH AFFINITY TO THE IL-10 RECEPTOR, PHARMACEUTICAL COMPOSITION AND THEIR USE AS IMMUNOMODULATORS IN THE TREATMENT OF AUTOIMMUNE, INFLAMMATORY OR ALLERGIC DISEASES” (Universidade Federal de Uberlândia, priority 2019, published 2022).
Bridges are numbered along the chain shown (N, C = ends). Where no end group is shown, it is not given here.

Key:
Treg cells = assay: flow cytometry of CD4+CD25+Foxp3+ cells in splenocytes from BALB/c mice; type: in vivo
Text: To investigate the influence of synthesized peptides mimetic to TGF-β1 on Treg induction specific to Phl p5 during allergic sensitization, we analyzed splenocytes from BALB/c mice using flow cytometry. We sought to investigate CD4+CD25+Foxp3+cells expressing GATA3, CTLA4 or KI67, as these factors are necessary for the survival and function of Treg cells. […] The percentage of CD4+CD25+Foxp3+T cells expressing the CTLA4 factor in mice without sensitization and sensitized with Phl p 5 was 5.62% and 9.46%, respectively, while in mice treated with Pep 2-TGF-β1 this value was 12.5% (FIG. 10C-D).

[1] = tested on: mice sensitized by Phl p5; assay: murine sensitization model with recombinant Phl p5: antibody response; type: in vivo
Text: We then tested the ability of the synthesized TGF-β1 mimetic peptides to modulate the in vivo immune response during allergic sensitization to Phl p 5. We selected as an example Pep 2-TGF-β1 to show the results. […] Therefore, Pep 2-TGF-β1 modulated Phl p5-specific antibody responses in mice.

[2] = tested on: TH2 polarization in skin-draining inguinal lymph node cells; assay: TH2 polarization in IL-4 reporter (4get) mice, GFP+CD4+ lymphocytes by flow cytometry; type: in vivo; settings: 5 days after immunization, administered with grass pollen extract
Text: TH2 lymphocytes produce cytokines such as IL-4, IL-5 and IL-13 and lead to the class shift of immunoglobulin production from B cells to IgE, which triggers the allergic reaction. To investigate whether synthesized peptides mimetic to TGF-β1 can modulate TH2 polarization in the presence of grass pollen extract or rPhl p 5, we used an IL-4 reporter mouse. 4get mice express GFP as part of a bicistronic IL-4-IRES-GFP mRNA, allowing the identification of cells expressing IL-4 in situ during an allergen-induced TH2 response. In this experiment, we use skin-draining inguinal lymph node cells to monitor the TH2 response. […] In summary, in this IL-4 mice model, Pep 2 administered in combination with grass pollen extract was able to inhibit TH2 polarization in skin-draining inguinal lymph node cells.

[3] = tested on: splenocytes of mice sensitized with Phl p 5; assay: ELISPOT of splenocytes stimulated with Phl p5; type: in vivo
Experimental: (§1) To determine the number of splenic cells producing IFN-g, IL-4 and IL-10 in all groups of mice, an ELISPOT assay was performed. […] To investigate the cytokine profile in supernatants from restimulated splenocytes, a Luminex Multiplex cytokine analysis kit was used. […] Furthermore, an increase in IL-10 levels was observed.

[4] = tested on: TGF-β1 receptor on A549 cells; assay: ELISA on cells of the A549 line using anti-TGF-β1 antibody; type: binding, human
Experimental: The peptides described in this patent application were selected using the Phage Display (PD) methodology. The selection was performed by evaluating the ability of said peptides to recognize the TGF-β1 receptor on A549 cells, using an ELISA assay. MaxiSorp 96-well microtiter plates were coated with 1×10^6 cells diluted in PBS and incubated overnight at 4° C. Cells were blocked with 3% PBS-BSA for 1 h at 37° C., washed once with PBS and incubated with […] of each TGF-β1 mimetic peptide or 5 ng/ml of recombinant TGF-β1 for 1 h at 37° C. After washing, the plate was incubated for 1 h at 37° C. with anti-TGF-β1 antibody. The plate was washed and incubated with HRP-labeled anti-human IgG antibody for 1 h at 37° C. After washing, TMB substrate solution was added to the plate; the reaction was stopped by adding the 2N H2SO4 solution and read at 492 nm in a microplate reader.
To investigate whether the synthesized peptides could bind to cell receptors, an ELISA assay was performed on cells of the A549 line using commercial anti-TGF-β1 antibody.

[5] = tested on: splenocytes of mice sensitized with Phl p 5; assay: Luminex Multiplex cytokine analysis of supernatants from restimulated splenocytes; type: in vivo
Experimental: as §1

IL-8 gene expression = assay: luciferase reporter under control of the IL-8 promoter in TNF-α stimulated A549 cells; type: cell-based, human
Text: First, we tested the ability of the synthesized peptides to recognize TGF^RII on the surface of Jurkat cells, immortalized human T lymphocytes, using ELISA. The recombinant TGFβ (rTGFβ1) was used as a positive control. […] To investigate IL-8 cytokine production, we used an immortalized human lung epithelial cell line (A549), which plays an important role in the first defense line to foreign compounds. […] A mediator release assay, based on rat basophilic leukemia (RBL) cells bearing humanized FIERI receptor, was performed to investigate the effect of the synthesized peptides on IgE-mediated degranulation of basophils in an already sensitized system. This sensitive cell-based assay may help to understand the action of the mimetic peptide in an established allergic microenvironment.

Jurkat cells = assay: cytokine secretion in MMA-stimulated Jurkat cells; type: cell-based, human
IFN signaling pathway = IFN signaling pathway in Jurkat-Dual reporter cells, SEAP production; type: cell-based; settings: after 12, 24 and 48 hours; results depend on concentration
Experimental: (§2) In order to investigate the ability of synthetic peptides with affinity to the Interleukin-10 receptor to interfere in the NFkB, IFN and TLR4 pathways, reporter cell lines were used. To analyze whether the isolated peptides (without activation molecules) could induce any type of activation, the isolated peptides were tested in cell lines during 12, 24 and 48 hours of treatment. […] As an example, FIG. 13A, FIG. 13B, and FIG. 13C show an analysis of NFkB expression after stimulation with the synthesized IL-10 receptor affinity synthetic peptides described herein. Cells were treated for 12, 24 and 48 hours with the synthesized peptides Pep 1-IL10, Pep 2-IL10, Pep 3-IL10 and Pep 4-IL10, at different concentrations, without activating molecules. Luciferase was then measured after 12 hours of treatment (FIG. 13A), 24 hours of treatment (FIG. 13B) and 48 hours of treatment (FIG. 13C). […] TNF-α (200 ng/mL) was used as a positive control.
The most significant results will be described below. […] When cells were pretreated with IFN, although peptides at some concentrations indicated results, they were not statistically sufficient. Therefore, we cannot confirm whether they were able to interfere with pathway activation (FIGS. 17 A, B and C) in an equal or better way than the negative control (rIL-10). In the assays shown by FIGS. 16 (A, B and C) and FIGS. 17 (A, B and C), analysis of IFN expression was performed in Jurkat-Dual reporter cells. In the assays shown by FIGS. 16 A, B and C, cells were treated for 1 hour with peptides with further addition of IFN-α (104 EU/ml). Secreted Embryonic Alkaline Phosphatase (SEAP) production was measured after 12 hours of treatment (FIG. 16A), 24 hours of treatment (FIG. 16 B) and 48 hours of treatment (FIG. 16 C). In the assays shown by FIGS. 17A, B and C, cells were treated for 1 hour with IFN-α (104 EU/ml) with further addition of the peptides. SEAP production was measured after (A) 12 hours of treatment (B), 24 hours of treatment and (C) 48 hours of treatment. IFN-α (104 EU/ml) was used as a positive control and rlL-10 (0.4 ng/ml) as a negative control. *P<0.05.

TLR4 signaling pathway = TLR4 signaling pathway in HEK cells, SEAP production (IL-10 mimetic peptides); type: cell-based; settings: cells pretreated with LPS 100 ng/ml, peptides added; 12 hours
Experimental: as §2
HEK cells were used to investigate the ability of the synthesized peptides Pep 1-IL10, Pep 2-IL10, Pep 3-IL10 and Pep 4-IL10 to modulate the activation of the TLR4 signaling pathway after 12 hours of treatment. […]
In the assay shown by FIG. 14A cells were treated 1 hour with peptides and LPS (100 ng/ml) was added. SEAP production was measured after 12 hours of treatment. […] SEAP production was measured after 12 hours of treatment. […]

NFkB pathway = assay: NFkB expression in Jurkat-Dual reporter cells, luciferase (IL-10 mimetic peptides); type: cell-based; settings: without activating molecules; 12, 24 and 48 hours; different concentrations
Experimental: as §2
The assay was then carried out using TNF-α as activation molecule not only in the control, but after a pretreatment with the synthesized peptides Pep 1-IL10, Pep 2-IL10, Pep 3-IL10 and Pep 4-IL10, at different concentrations. All peptides were able to modulate NFKB activation after 12, 24 and 48 hours, with different results depending on the concentrations used. […] In the assays shown by FIGS. 14 A, B and C, analysis of NFkB expression was performed in Jurkat-Dual reporter cells. Cells were treated for 1 hour with peptides and TNF-α (200 ng/ml) added. Luciferase was measured after 12 hours of treatment (FIG. 14A), 24 hours of treatment (FIG. 14B) and 48 hours of treatment (FIG. 14C).
Another assay was then performed in which cells were pretreated with TNF-α and the synthesized peptides Pep 1-IL10, Pep 2-IL10, Pep 3-IL10 and Pep 4-IL10, at different concentrations, were added later. All peptides were able to modulate NFKB activation after 12, 24 and 48 hours, with different results depending on the concentrations used. The most significant results will be described below. […] After 48 hours of treatment, Pep 1-IL-10 at a concentration of 0.001 μM (P<0.05) was the one that obtained a result with the highest statistical significance in the decrease of NFKB signaling (FIG. 15C). In the assays shown by FIGS. 15 A, B and C, analysis of NFkB expression was performed in Jurkat-Dual reporter cells. Cells were treated for 1 hour with TNF-α (200 ng/ml) and peptides were added. Luciferase was measured after 12 hours of treatment (FIG. 15A), 24 hours of treatment (FIG. 15B) and 48 hours of treatment (FIG. 15C). TNF-α (200 ng/mL) was used as a positive control and rlL-10 (recombinant Interleukin-10) (0.4 ng/mL) as a negative control. *P<0.05; **P<0.005; ***P<0.0005.

## Pep 2-TGF-β1: synthetic peptide with affinity to the TGF-β receptor, SEQ ID N 02, with disulfide bridges (HACESPLKRQCGGGS; disulfide 3-11)
Treg cells; mice sensitized with Phl p5 and treated, control 16.1%, sensitized 16.2%
  Treg cells expressing the factor GATA3 (of total T cells): 43.9%
Treg cells; mice sensitized with Phl p5 and treated, no sensitization 5.62%, sensitized 9.46%
  percentage of CD4+CD25+Foxp3+T cells expressing the CTLA4 factor: 12.5%
Treg cells; vs Phl p5-sensitized mice, not significantly different
  percentage of CD4+CD25+Foxp3+cells expressing factor KI67: enriched
[1]; 1 μM, intradermal immunization with Phl p5
  degranulation of RBL cells sensitized with sera from treated mice vs Phl p 5 immunized group: significantly lower levels of degranulation
[1]; mice sensitized by Phl p5
  serum IgA levels (ELISA): increased levels of IgA
  serum IgE levels (ELISA): suppressed
  serum IgG1 levels (ELISA): suppressed
[1]; mice sensitized by Phl p5, not statistically significant
  serum IgG2a levels (ELISA): suppressed
[2]
  TH2 polarization (GFP+CD4+ lymphocytes): suppressed TH2 polarization
[3]
  IFN-g secreted by splenocytes (ELISPOT) vs untreated mice: significantly lower
  IL-4 secreted by splenocytes (ELISPOT) vs untreated mice: significantly lower
  IL-10 levels of splenocytes (ELISPOT) vs untreated mice: significantly higher
[4]
  recognition of receptor-bound peptide by anti-TGF-β1 antibody compared to recombinant TGF-β1: in the same way that the antibody recognized the TGF-β1 recombinant molecule
[5]
  IFN-g secretion in splenocyte supernatant vs untreated mice: significantly lower
  IL-2 secretion in splenocyte supernatant vs untreated mice: significantly lower
  IL-4 secretion in splenocyte supernatant vs untreated mice: significantly lower
  IL-5 secretion in splenocyte supernatant vs untreated mice: significantly lower
  IL-10 secretion in splenocyte supernatant vs untreated mice: higher
  IL-13 secretion in splenocyte supernatant vs untreated mice: significantly lower

## rTGFβ: recombinant TGFβ (rTGFβ1) used as a positive control
IL-8 gene expression
  IL-8 gene expression (luciferase reporter): decreased IL-8 gene expression
Jurkat cells
  IL-10 secretion: increased IL-10 secretion
  TNF-α secretion: significantly decreased TNF-α secretion

## Pep 2-IL-10: synthetic peptide with affinity to the Interleukin-10 receptor, SEQ ID NO: 10, without disulfide bridge (HASSAVIKSSSGGGS)
IFN signaling pathway
  modulation of the activation of the IFN signaling pathway: able to modulate the activation of the IFN signaling pathway
TLR4 signaling pathway
  concentrations that significantly reduced TLR4 pathway activation: 100 μM (P<0.05), 1 μM (P<0.005), 0.5 μM (P<0.05), 0.1 μM (P<0.05), 0.05 μM (P<0.05) and 0.01 μM
NFkB pathway
  induction of NFkB expression by peptides alone: not able to induce any response
